Activity calls are given as the source filed them. The rule behind the calls is not given here. Some results are limits rather than exact numbers.

Test [1] concerns Platelet. As to the kind of experiment: Disaggregation activity against arachidonic acid-induced rabbit platelet aggregation at 10 ug/ml relative to arachidonic acid response. It is filed as functional, cell-based. The conditions noted are these: Oryctolagus cuniculus.
The subject of test [2] is Platelet. As to the kind of experiment: Antiaggregation activity against arachidonic acid-induced rabbit platelet aggregation at 10 ug/ml. Type of test: functional, cell-based. Particulars: Oryctolagus cuniculus, TDE = time-dependent effect.
Test [3] has as its system Ileum. As to the kind of experiment: Inhibition of acetylcholine-induced guinea pig ileum contraction at 5 ug/ml after 15 mins. Type of test: functional, tissue-based. The conditions noted are these: Cavia porcellus.
For test [4], the system named is Ileum. As to the kind of experiment: Inhibition of acetylcholine-induced guinea pig ileum contraction assessed as residual activity at 10 ug/ml after 30 to 50 mins relative to control. Type of test: functional, Cavia porcellus.
Test [5] deals with Platelet. As to the kind of experiment: Disaggregation activity against ADP-induced rabbit platelet aggregation at 10 ug/ml relative to ADP response. Type of test: functional, cell-based. Particulars: Oryctolagus cuniculus.
The test system of test [6] is Ileum. As to the kind of experiment: Inhibition of coaxially-induced guinea pig ileum contraction at 10 ug/ml. The conditions noted are these: Cavia porcellus, TDE = time-dependent effect. It is filed as functional, tissue-based.
In test [7] the test system is Ileum. As to the kind of experiment: Inhibition of histamine-induced guinea pig ileum contraction. Particulars: Cavia porcellus, read-out: pA2 (converted).
Test [8] has as its system Ileum. As to the kind of experiment: Inhibition of BaCl2-induced guinea pig ileum contraction at 10 ug/ml after 15 mins. It is filed as functional, tissue-based. The conditions noted are these: Cavia porcellus.
Test [9] has as its system Platelet. As to the kind of experiment: Antiaggregation activity against ADP-induced rabbit platelet aggregation at 10 ug/ml. It is filed as functional, cell-based. The conditions noted are these: Oryctolagus cuniculus, TDE = time-dependent effect.
Test [10] has as its system Ileum. As to the kind of experiment: Inhibition of acetylcholine-induced guinea pig ileum contraction assessed as residual activity at 5 ug/ml after 30 to 50 mins relative to control. It is filed as functional, Cavia porcellus.
Test [11] deals with Ileum. As to the kind of experiment: Inhibition of acetylcholine-induced guinea pig ileum contraction. It is filed as functional, tissue-based. Particulars: Cavia porcellus, TDE = time-dependent effect.
Test [12] relates to Ileum. As to the kind of experiment: Inhibition of acetylcholine-induced guinea pig ileum contraction at 10 ug/ml after 15 mins. It is filed as functional, tissue-based. The conditions noted are these: Cavia porcellus.

Consider `C=C[C@@]12COC(=O)C(=C)[C@@H]1[C@H]1OC(=O)C(=C)[C@@H]1[C@@H](O)C2` [VERNOLEPIN], for which the outcome in the test on Platelet [1] and in the test with Platelet [5] was Active. Moreover, the Activity result with Platelet [2] is “tde”; in the test on Ileum [4], <20%; with Ileum [6], “tde”; in the test with Platelet [9], “tde”; in the test with Ileum [10], <40%; with Ileum [11], “tde”. Moreover, the result with Ileum [3], with Ileum [8] and in the test with Ileum [12] was inactive. For the same compound, the Kb in the test on Ileum [7] is 2450 nM.

(Values after ChEMBL document CHEMBL1151413 (J Nat Prod, 1983).)
